“Also recorded” adds a separate entry of the source.
Key:
DIAMOND™ mice [1] = test: Leaky gut assay / Dextran Assay - gut permeability at week 12 and week 20 (Example 2); type: in vivo, mouse; conditions: for GP at week-12 compared to vehicle control (Arm-5): after 4 weeks of treatment; for GP at week-20 compared to vehicle control: after 12 weeks of treatment; for GP week-20 vs week-12: mice with data at both time points, paired t-test
Procedure: At 8 weeks on diet (t=8), mice were randomized into experimental groups based on the most recent body weight. […] Gut integrity/permeability was measured with the leaky gut assay on week 12 (one month on test article treatment) and on week 20 immediately prior to sacrifice. At each assay time point, between 0.2 ml and 0.4 ml of 4 kDa dextran solution (2 g/10 ml PBS solution, 0.2 g/mL) was orally gavaged to mice. After 4 hours, blood was collected from the tail vein and processed to serum. Dextran concentration in samples was measured by ELISA.
Gut integrity/permeability was measured with the leaky gut assay at two time points (12-week and 20-week) by competitive Dextran ELISA, 4 weeks after initial drug dosing with test article or vehicles, and immediately prior to sacrifice. Fresh fecal pellets were collected prior to each assay and placed into RNAlater and frozen (for possible future gut microbiome analysis).
• a. The leaky gut assay was performed at week 12 (one month on treatment) and immediately prior to sacrifice. • b. The procedure for the dextran was as follow: • i. 2 g of 4 kD dextran was weighed into a static free weigh dish. • ii. The dextran was mixed into a 10 ml of PBS solution. • iii. Between 0.2 ml and 0.4 ml of dextran solution was orally gavaged into mice. Each mouse staggered by 10 minutes to maintain blood dextran consistency during blood collection. • iv. 4 hours post gavage lidocaine applied to the tails of the mice in the order that they were gavaged. • v. The mice were lightly restrained in a mouse restraint device. • vi. After 5 minutes 70% alcohol was applied to a cotton swab and used to wipe off the lidocaine. • vii. Sterile scissors were used to perform a tail nick. • viii. 140 μl of whole blood was collected into a capillary tube. • ix. The capillary tubes were spun at 3,000 RPM for 8 minutes. • x. The capillary tubes were broken at the supernatant line and the serum was blown into an Eppendorf tube and snap frozen in liquid nitrogen.

DIAMOND™ mice [2] = test: Liver weight at necropsy (Example 2); type: in vivo, mouse; conditions: week 20
Procedure: Body weight and liver weight at time of euthanasia were recorded. Any abnormal gross anatomy signs on the body or liver would have been noted. […] The liver was processed into sections.

DIAMOND™ mice [3] = test: Blood glucose and ketones from tail nick (Example 2); type: in vivo, mouse; conditions: at necropsy
Procedure: Following completion of the dosing period on t=20, the mice were placed into a clean cage and fasted for six (6) hours prior to euthanasia. Animals were euthanized by exposing them to carbon dioxide as an anesthetic followed by cardiac puncture for exsanguination. Cervical dislocation was performed as a secondary means of euthanasia. A volume of 3-5 μl of whole blood were collected from a tail nick premortem and used for glucose and ketone testing. A second volume of 300-500 μl of blood collected at euthanasia were processed to serum, aliquoted into small vials and flash frozen in liquid nitrogen for further tests including liver function and lipid tests as per study protocol. Remaining serum was stored frozen for further possible testing.
• a. Immediately prior to euthanasia a tail nick was performed. Whole blood was used to measure ketones and glucose. • b. Euthanasia—The mice were placed into a clean cage and fasted for 6 hours prior to euthanasia. Blood collection took place during euthanasia via cardiac puncture. The blood was collected into micro-serum separator tubes and processed to serum by centrifugation under 4 degrees Celsius for 15 minutes at 5,000 RMP, aliquoted in 100 μl aliquots, and serum flash frozen. Serum samples were stored frozen at −80° C. until use. […]

DIAMOND™ mice [4] = test: Serum lipid profile, Alere Cholestech LDX (Example 2); type: in vivo, mouse; conditions: serum at necropsy
Procedure: (§1) Lipid (total cholesterol, LDL, HDL, triglycerides, HDL calc.) and hepatic (ALB, AST, ALT, Alk, Phos, BUN, GGT, T Bil) panels were performed as described below. Due to natural variations in mice physiology extra serum might not be available to repeat testing.
40-50 microliters of thawed serum were placed into the sample well of an AL-10-991 test cassette, then the test cassette placed into the Alere Cholestech LDX blood lipid analyzer. The Alere Cholestech is FDA approved and CLIA waived for human use at POC and is used by numerous drug companies and CROs in preclinical studies because it only requires a small amount of blood. It may be used with whole blood, serum or plasma for humans, but mouse blood clots much faster and so whole blood in our experience has a higher failure rate. We therefore used serum.
Readouts were: • 1. Total cholesterol (T-chol) • 2. Triglycerides (TRIGS) (45 lower LOD) • 3. Glucose (standard range) • 4. HDL (100 upper LOD) • 5. LDL (calculated T-Chol—HDL)

DIAMOND™ mice [5] = test: Serum LFT / hepatic panel, Abaxis VS2 (Example 2); type: in vivo, mouse; conditions: serum at necropsy
Procedure: as §1
Abaxis VS2 blood chemistry analyzers were used for measuring LFTs. This instrument is FDA approved for veterinary use, CLIA waived, and self-calibrating. It is the equivalent instrument to the Abaxis Piccolo instrument for human diagnostic testing. Phenobarbital test rotors (catalog #500-0049) were used which measure AST, ALT, ALP, GGT, ALB, and Total Bilirubin. The reactions are colorimetric, read automatically by the VS2 instrument, and results printed on a sticker which is attached to the necropsy specimen sheet and then entered into Excel. A minimum of 100 microliters of sample is needed for this test rotor, which may be either undiluted serum or diluted serum, in a ratio of 1:1 50 microliters of serum: 50 microliters of PBS without affecting accuracy of measurement of analytes. Significant hemolysis may render samples un-readable.

DIAMOND™ mice [6] = test: Liver histology scoring, H&E and Sirius Red (Example 2); type: in vivo, mouse
Procedure: Liver samples were fixed in 10% neutral buffered formalin for 36-48 hours depending on the size of the sample before being placed into 70% alcohol. The samples were then processed into FFPE blocks. The FFPE blocks were sectioned and three (3) slides were cut per block and submitted for H&E and Sirius Red staining, and subsequent histology analysis. The samples' identity was blinded at the time of shipment for unbiased scoring.
Slide evaluation and scoring include NAS component scoring (fibrosis, steatosis grade and percentage, inflammation, ballooning), NAS score, SAF activity score, Fibrosis NASH CRN Score, Perisinusoidal Fibrosis score, and NASH category score. A histopathology sub-report is to be prepared containing scores and representative photographic images from each group.

DIAMOND™ mice [7] = test: Gut permeability by serum dextran competitive ELISA after 4 kDa dextran gavage, WDSW-fed DIAMOND mice (Example 1); type: in vivo, mouse; conditions: for Western Diet-induced GP (conclusion): Example 1 conclusion
Procedure: Pioglitazone was dosed at 30 mg/kg for the entire 12 weeks. Gut permeability (GP) was assessed twice at 12 weeks and 20 weeks by measuring dextran absorption into the bloodstream using a competitive enzyme-linked immunosorbent assay (ELISA) with 20 μL of serum collected by tail nick. Mice were gavaged with 4 kDa dextran at 600 mg/kg; the more permeable the gut, the more dextran is detected in serum. Results between dose groups were compared using Student's 2-tailed t-test, and pair-wise analysis was performed on serial measurements from week-12 to week-20 to assess drug impact on progression of GP over time. Serum and liver tissues were collected at necropsy, formalin-fixed, paraffin-embedded (FFPE) slides stained with H&E and Sirius Red, and liver pathology was assessed.

DIAMOND™ mice [8] = type: in vivo; conditions: 150 mg/kg oral gavage; arm terminated early
Procedure: 8 mice gavaged with Curcumin at a dose of 150 mg/kg.
8 mice dosed from week 8 (t=8) until week 20 (t=20) on the Western Diet Sugar Water with once (1×) daily oral gavage with curcumin 150 mg/kg.

[9] = system: Staphylococcus, Streptococcus, Enterococcus, and Enterobacteriaceae; conditions: species of Staphylococcus; cited from earlier work
[10] = end of study, listed as Vitamin-E
[11] = Results Analysis 2, Week 12, after 4 weeks of treatment
[12] = Results Analysis 2, Week 20, after 12 weeks of treatment
[13] = Results Analysis 1, pair-wise analysis

## Cc1c(C)c2c(c(C)c1O)CC[C@@](C)(CCC[C@H](C)CCC[C@H](C)CCCC(C)C)O2 [Vitamin E, a-tocopherol]
DIAMOND™ mice [1]
  GP at week-12 compared to vehicle control (Arm-5): no effect
  GP at week-20 compared to vehicle control: no effect
  GP week-20 vs week-12: Trending upward
DIAMOND™ mice [1]; listed as Vit. E
  GP week-20 vs week-12: trends toward an increase in GP
DIAMOND™ mice [2]
  liver weight vs Vehicle Control (Arm-5): lower
DIAMOND™ mice [3]
  Ketones blood level vs vehicle control (Arm-5): moved ketone levels up
DIAMOND™ mice [4]
  triglycerides vs vehicle control (Arm-5): no effect
DIAMOND™ mice [4]; listed as Arm-9
  triglycerides vs vehicle control (Arm-5): no significant effect
DIAMOND™ mice [5]
  ALT vs control vehicles: significantly increased
  AST vs control vehicles: significantly increased
  Albumin vs vehicle control: lower albumin
DIAMOND™ mice [5]; listed as Vitamin-E
  Albumin vs vehicle control: decreased
DIAMOND™ mice [6]; end of study
  Lobular inflammation vs control Arm-5: increase
  NAFLD Activity Score (NAS) vs control Arm-5: slight increase
  Steatosis, Activity and Fibrosis (SAF) score vs control Arm-5: slight increase
  prevalence of NASH (disease category): 38%
DIAMOND™ mice [6]; [10]
  Lobular inflammation vs control Arm-5: increased
  NAFLD Activity Score (NAS) vs control Arm-5: increased
  Steatosis, Activity and Fibrosis (SAF) score vs control Arm-5: increased

## CCc1ccc(CCOc2ccc(CC3SC(=O)NC3=O)cc2)nc1 (centres unmarked) [Pioglitazone]
DIAMOND™ mice [7]; [11]
  mean serum dextran concentration: 121 µg/mL
DIAMOND™ mice [7]; Results Analysis 2, Week 20
  fold reduction in mean serum dextran concentration compared with vehicle: 3.0 fold
DIAMOND™ mice [7]; [12]
  mean serum dextran concentration: 71.8 µg/mL
DIAMOND™ mice [5]
  BUN vs Vehicle control groups (Arm-5 and Arm-10): significantly increased
DIAMOND™ mice [6]; end of treatment
  steatosis-only (disease category): 100%

## C[N@+]1(CC2CC2)CC[C@]23c4c5ccc(O)c4O[C@H]2C(=O)CC[C@@]3(O)[C@H]1C5.[Br-] [MNTX, (R)-N-(cyclopropylmethyl) noroxymorphone methobromide]
DIAMOND™ mice [7]
  Western Diet-induced GP (conclusion): dramatically improved
DIAMOND™ mice [7]; Results Analysis 1, 12 week timepoint
  fold reduction of serum dextran compared to the VC group: 2.7 fold
DIAMOND™ mice [7]; Results Analysis 1, 12 week timepoint, 4 weeks of treatment
  serum dextran concentration: 90.9 µg/mL
DIAMOND™ mice [7]; Results Analysis 1, 20 week timepoint, 12 weeks of treatment
  average serum dextran concentration, fold lower than the VC group: 2 fold
DIAMOND™ mice [7]; Results Analysis 2, Week 12
  fold reduction in mean serum dextran concentration compared with vehicle: 1.8 fold
  serum dextran concentration relative to vehicle (significance): significant reduction
DIAMOND™ mice [7]; [11]
  mean serum dextran concentration: 91 µg/mL
DIAMOND™ mice [7]; Results Analysis 2, Week 20
  fold reduction in mean serum dextran concentration compared with vehicle: 2.9 fold
  serum dextran concentration (significance): significant reduction
DIAMOND™ mice [7]; [12]
  mean serum dextran concentration: 74.7 µg/mL
DIAMOND™ mice [1]
  GP at week-12 compared to vehicle control (Arm-5): significantly lower GP
  GP at week-20 compared to vehicle control: persists at week-20; also recorded: significantly lower GP
  GP week-20 vs week-12: maintained
DIAMOND™ mice [2]
  liver weight vs Vehicle Control (Arm-5): significantly lower liver weight
DIAMOND™ mice [4]
  triglycerides vs vehicle control (Arm-5): no significant effect
DIAMOND™ mice [6]; end of study
  prevalence of NASH (disease category): 38%

## COc1cc(/C=C/C(=O)CC(=O)/C=C/c2ccc(O)c(OC)c2)ccc1O [Curcumin]
DIAMOND™ mice [8]
  mortality: excess mortality

## CO[C@H]1/C=C/O[C@@]2(C)Oc3c(C)c(O)c4c(O)c(c5c(nc6cc(C)ccn65)c4c3C2=O)NC(=O)/C(C)=C\C=C\[C@H](C)[C@H](O)[C@@H](C)[C@@H](O)[C@@H](C)[C@H](OC(C)=O)[C@@H]1C [Rifaximin]
DIAMOND™ mice [7]
  Western Diet-induced GP (conclusion): dramatically improved
DIAMOND™ mice [7]; [13]
  serum dextran average at 20 weeks: 85.9 µg/mL
  serum dextran, 12-week average: 154.0 µg/mL
DIAMOND™ mice [7]; Results Analysis 1, week 12 to week 20
  improvement of leaky gut in the 8 weeks between first and second measurement: 45%
DIAMOND™ mice [7]; [11]
  mean serum dextran concentration: 151 µg/mL
DIAMOND™ mice [7]; Results Analysis 2, Week 20
  serum dextran concentration (significance): significant reduction
DIAMOND™ mice [7]; [12]
  mean serum dextran concentration: 81.2 µg/mL
DIAMOND™ mice [7]; Results Analysis 2, pair-wise, Week 12 to Week 20
  improvement in leaky gut during the 8 weeks between assessments: 46.2%
DIAMOND™ mice [1]
  GP at week-12 compared to vehicle control (Arm-5): no changes
  GP at week-20 compared to vehicle control: significantly lower GP
  GP week-20 vs week-12: borderline significant
DIAMOND™ mice [2]
  liver weight vs Vehicle Control (Arm-5): did not reduce liver weight
DIAMOND™ mice [3]
  Ketones blood level vs vehicle control (Arm-5): slightly decreased; also recorded: decreased
DIAMOND™ mice [4]
  triglycerides vs vehicle control (Arm-5): no effect
DIAMOND™ mice [4]; listed as Arm-3
  triglycerides vs vehicle control (Arm-5): no significant effect
DIAMOND™ mice [5]
  BUN vs Vehicle control groups (Arm-5 and Arm-10): significantly increased
DIAMOND™ mice [6]; end of study
  Liver steatosis % vs control Arm-5: increased; also recorded: slight increase in steatosis
[9]
  in vitro antibacterial activity: active

Reference: US20220175764A1 (priority 2019, published 2022)
